Data taken from the supplement of paper PMC10307832.

Experiments:
Experiment in all cases: relative viability (nuclei count vs DMSO), 5 days (fraction); higher = more cells survive
[1] = compound: COc1cc2ncn(-c3cc(OCc4ccccc4C(F)(F)F)c(C(N)=O)s3)c2cc1OC + Cc1nc(Nc2ncc(C(=O)Nc3c(C)cccc3Cl)s2)cc(N2CCN(CCO)CC2)n1 [Dasatinib] (partner 0.075 µM)
Outline: (§1)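 Values are medians from duplicate plates. Each reflects relative viability, defined as the nuclei count of treated wells over that of vehicle wells. Lung cancer cell lines in 1536-well plates were pin-tool dosed one day after seeding with one drug alone or with a fixed anchor-drug dose plus five library-drug doses (not always all listed) in √10 steps, then fixed, stained and imaged at 4× after 5 days.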

[2] = compound: COc1cc2ncn(-c3cc(OCc4ccccc4C(F)(F)F)c(C(N)=O)s3)c2cc1OC + COc1cc2c(Oc3ccc(NC(=O)C4(C(=O)Nc5ccc(F)cc5)CC4)cc3F)ccnc2cc1OCCCN1CCOCC1 [Foretinib] (partner 0.25 µM)
Outline: as §1

[3] = compound: COc1cc2ncn(-c3cc(OCc4ccccc4C(F)(F)F)c(C(N)=O)s3)c2cc1OC + Nc1ncn([C@H]2C[C@H](O)[C@@H](CO)O2)c(=O)n1 [Decitabine] (partner 2 µM)
Outline: as §1

[4] = compound: COc1cc2ncn(-c3cc(OCc4ccccc4C(F)(F)F)c(C(N)=O)s3)c2cc1OC + CCNC(=O)c1noc(-c2cc(C(C)C)c(O)cc2O)c1-c1ccc(CN2CCOCC2)cc1 [Luminespib] (partner 0.01 µM)
Outline: as §1

Cell Line | relative viability ([1]; first compound 0.05 µM) | relative viability ([1]; first compound 0.1581 µM) | relative viability ([1]; first compound 0.5 µM) | relative viability ([1]; first compound 1.581 µM) | relative viability ([1]; first compound 5 µM) | relative viability ([2]; first compound 0.05 µM) | relative viability ([2]; first compound 0.1581 µM) | relative viability ([2]; first compound 0.5 µM) | relative viability ([2]; first compound 1.581 µM) | relative viability ([2]; first compound 5 µM) | relative viability ([3]; first compound 0.05 µM) | relative viability ([3]; first compound 0.1581 µM) | relative viability ([3]; first compound 0.5 µM) | relative viability ([3]; first compound 1.581 µM) | relative viability ([3]; first compound 5 µM) | relative viability ([4]; first compound 0.05 µM) | relative viability ([4]; first compound 0.1581 µM) | relative viability ([4]; first compound 0.5 µM) | relative viability ([4]; first compound 1.581 µM) | relative viability ([4]; first compound 5 µM)
NCI-H1755 | 0.445 | 0.402 | 0.315 | 0.222 | 0.207 | 0.583 | 0.896 | 0.635 | 0.362 | 0.315 | 0.702 | 0.682 | 0.716 | 0.57 | 0.397 | 0.463 | 0.388 | 0.474 | 0.224 | 0.181
NCI-H1793 | 0.379 | 0.382 | 0.3 | 0.15 | 0.141 | 0.925 | 0.825 | 0.506 | 0.24 | 0.164 | 0.244 | 0.469 | 0.408 | 0.223 | 0.137 | 0.163 | 0.194 | 0.176 | 0.15 | 0.128
NCI-H1915 | 0.365 | 0.281 | 0.316 | 0.0798 | 0.0572 | 1.08 | 1.03 | 0.702 | 0.204 | 0.141 | 0.249 | 0.261 | 0.228 | 0.143 | 0.0992 | 0.796 | 0.713 | 0.389 | 0.0805 | 0.0432
NCI-H1944 | 0.227 | 0.223 | 0.191 | 0.127 | 0.109 | 0.804 | 1.03 | 0.743 | 0.221 | 0.131 | 0.468 | 0.465 | 0.399 | 0.235 | 0.153 | 0.512 | 0.705 | 0.543 | 0.177 | 0.0836
NCI-H1975 | 0.415 | 0.335 | 0.207 | 0.126 | 0.109 | 0.932 | 0.961 | 0.516 | 0.155 | 0.138 | 0.359 | 0.302 | 0.27 | 0.153 | 0.142 | 0.229 | 0.26 | 0.184 | 0.163 | 0.233
NCI-H1993 | 0.649 | 0.555 | 0.528 | 0.503 | 0.424 | 0.652 | 0.884 | 0.662 | 0.579 | 0.569 | 0.448 | 0.631 | 0.506 | 0.364 | 0.413 | 0.756 | 0.8 | 0.548 | 0.463 | 0.448
NCI-H2009 | 0.297 | 0.256 | 0.152 | 0.128 | 0.0782 | 1.07 | 1.1 | 0.89 | 0.354 | 0.248 | 0.344 | 0.301 | 0.259 | 0.197 | 0.17 | 1.03 | 0.941 | 0.819 | 0.127 | 0.101
NCI-H2023 | 0.566 | 0.532 | 0.355 | 0.096 | 0.0804 | 0.765 | 0.799 | 0.725 | 0.416 | 0.0871 | 0.203 | 0.213 | 0.159 | 0.0779 | 0.0772 | 0.735 | 0.679 | 0.299 | 0.0886 | 0.0831
NCI-H2085 | 0.23 | 0.233 | 0.221 | 0.217 | 0.209 | 0.931 | 1 | 0.566 | 0.294 | 0.31 | 0.508 | 0.502 | 0.431 | 0.36 | 0.363 | 0.37 | 0.401 | 0.357 | 0.273 | 0.253
NCI-H2087 | 0.8 | 0.656 | 0.583 | 0.117 | 0.075 | 1.16 | 1.21 | 0.261 | 0.117 | 0.128 | 0.317 | 0.227 | 0.152 | 0.0875 | 0.106 | 0.174 | 0.177 | 0.162 | 0.14 | 0.167
NCI-H2126 | 0.584 | 0.638 | 0.463 | 0.248 | 0.221 | 1.21 | 1.26 | 0.672 | 0.365 | 0.318 | 0.571 | 0.605 | 0.556 | 0.261 | 0.227 | 0.957 | 0.875 | 0.532 | 0.288 | 0.265
NCI-H2170 | 0.545 | 0.406 | 0.374 | 0.163 | 0.156 | 0.942 | 0.985 | 0.468 | 0.269 | 0.202 | 0.49 | 0.458 | 0.285 | 0.151 | 0.166 | 0.4 | 0.845 | 0.415 | 0.189 | 0.177
NCI-H2342 | 0.325 | 0.354 | 0.279 | 0.278 | 0.237 | 1.13 | 0.951 | 0.876 | 0.475 | 0.567 | 0.628 | 0.701 | 0.626 | 0.569 | 0.528 | 0.757 | 0.752 | 0.715 | 0.597 | 0.545
NCI-H2347 | 0.32 | 0.258 | 0.278 | 0.228 | 0.258 | 0.966 | 0.916 | 0.98 | 0.651 | 0.428 | 0.556 | 0.589 | 0.531 | 0.499 | 0.482 | 0.522 | 0.303 | 0.419 | 0.346 | 0.465
NCI-H2405 | 0.24 | 0.21 | 0.171 | 0.162 | 0.131 | 0.998 | 0.817 | 0.531 | 0.359 | 0.361 | 0.754 | 0.704 | 0.506 | 0.373 | 0.324 | 0.76 | 0.601 | 0.341 | 0.283 | 0.338
NCI-H3122 | 0.895 | 0.562 | 0.373 | 0.125 | 0.0999 | 0.976 | 0.93 | 0.241 | 0.123 | 0.148 | 0.373 | 0.426 | 0.193 | 0.14 | 0.103 | 0.0893 | 0.0896 | 0.149 | 0.0746 | 0.0906
